The source of these data is patent publication US7989438B2, “Therapeutic compounds” (Istituto di Ricerche di Biologia Molecolare P. Angeletti SpA, priority 2007, dated 2011).

A word on the IC50: it is the point on the concentration scale where inhibition reaches its midpoint.

Like-named read-outs stand apart in the source and are kept apart here. Where only a bound is given, the exact number is not on record here.

This assay relates to HCV subgenomic replication. Description: Cell based HCV replication assay (subgenomic replicon in Huh-7 cells, NS3 Cell-ELISA). The settings on record: activity ranges, read-out: IC50* (nM), Inhibition of HCV subgenomic replication. The procedure, abridged: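 Huh-7 cells stably carrying the I377neo/NS3-3′/wt subgenomic replicon, seeded at 10^4 cells/well in DMEM/10% FCS and exposed to inhibitor for 96 h. NS3 expression was measured by Cell-ELISA (mAb 10E5/24, alkaline phosphatase, absorbance 405/620 nm), in duplicate. IC50 was fitted to the Hill equation, with background from parental Huh-7 cells.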
(In general: A replicon is a self-replicating genome or part of one, used to study replication in cells.)

[1] abbreviates: Hepatitis C virus, Huh-7, Table 3, various macrocycles.

For `Cc1ccc2c(c1)OCC1Cn3c-2c(C2CCCCC2)c2ccc(cc23)C(=O)NS(=O)(=O)N(C)CCN(C(C)C)CCN1C` [Example 218, (7R)-14-cyclohexyl-21-isopropyl-3,18,24-trimethyl-7,8-dihydro-6H-7,11-(epiminoethanoiminoethanoiminothioiminomethano)-indolo[1,2-e][1,5]benzoxazocin-15-one 17,17-dioxide], the IC50 (Table 2, various macrocycles) was less than 25 nM.
Regarding `CCN1CCN(CCN(C)C)C2COc3c(C)cccc3-c3c(C4CCCCC4)c4ccc(cc4n3C2)C(=O)NS(=O)(=O)N(C)CC1` [Example 219, (7R)-14-cyclohexyl-24-[2-(dimethylamino)ethyl]-21-ethyl-4,18-dimethyl-7,8-dihydro-6H-7,11-(epiminoethanoiminoethanoiminothioiminomethano)-indolo[1,2-e][1,5]benzoxazocin-15-one 17,17-dioxide], the IC50 (Table 2, various macrocycles) is less than 25 nM.
Still for that read-out and setting: to `CN(C)CCN1CCN(C)C2COc3ccccc3-c3c(C4CCCCC4)c4ccc(cc4n3C2)C(=O)NS(=O)(=O)N(C)CC1` [Example 220, (7R)-14-cyclohexyl-21-[2-(dimethylamino)ethyl]-18,24-dimethyl-7,8-dihydro-6H-7,11-(epiminoethanoiminoethanoiminothioiminomethano)-indolo[1,2-e][1,5]benzoxazocin-15-one 17,17-dioxide] belongs less than 25 nM.
As for `CN1C2CCN(CCN(C)S(=O)(=O)NC(=O)c3ccc4c(C5CCCCC5)c5n(c4c3)C[C@@H]1COc1ccccc1-5)C2` [Example 301, (18R)-29-cyclohexyl-10,17-dimethyl-20-oxa-9-thia-1,8,10,13,17-pentaazahexacyclo[16.9.1.1^2,6.1^3,27.1^13,16.0^21,26]hentriaconta-2(31),3,5,21,23,25,27(29)-heptaen-7-one 9,9-dioxide], the IC50 under setting [1] is less than 25 nM.
On the same count and under the same terms, to `CN1C2CCN(CC2)CCN(C)S(=O)(=O)NC(=O)c2ccc3c(C4CCCCC4)c4n(c3c2)C[C@@H]1COc1ccccc1-4` [Example 302, (3R)-31-cyclohexyl-2,22-dimethyl-5-oxa-21-thia-2,13,20,22,25-pentaazahexacyclo[23.2.2.1^3,13.1^12,15.1^14,18.0^6,11]dotriaconta-6,8,10,12(31),14(30),15,17-heptaen-19-one 21,21-dioxide] belongs less than 25 nM; to `CN1CCN2CCC(CC2)N(C)S(=O)(=O)NC(=O)c2ccc3c(C4CCCCC4)c4n(c3c2)C[C@@H]1COc1ccccc1-4` [Example 303, (5R)-31-cyclohexyl-4,24-dimethyl-7-oxa-23-thia-1,4,15,22,24-pentaazahexacyclo[23.2.2.1^5,15.1^14,17.1^16,20.0^8,13]dotriaconta-8,10,12,14(31),16(30),17,19-heptaen-21-one 23,23-dioxide], less than 25 nM; to `CN1CCN2CCCN(CC2)S(=O)(=O)NC(=O)c2ccc3c(C4CCCCC4)c4n(c3c2)C[C@@H]1COc1ccccc1-4` [Example 304, (20R)-31-cyclohexyl-21-methyl-18-oxa-2-thia-1,3,10,21,24-pentaazahexacyclo[22.3.2.1^5,9.1^8,11.1^10,20.0^12,17]dotriaconta-5(32),6,8,11(31),12,14,16-heptaen-4-one 2,2-dioxide], less than 25 nM.
Still for that read-out and setting: to `CN1CCOC2CCN(CC2)S(=O)(=O)NC(=O)c2ccc3c(C4CCCCC4)c4n(c3c2)C[C@@H]1COc1ccccc1-4` [Example 306, (20R)-31-cyclohexyl-21-methyl-18,24-dioxa-2-thia-1,3,10,21-tetraazahexacyclo[23.2.2.1^5,9.1^8,11.1^10,20.0^12,17]dotriaconta-5(32),6,8,11(31),12,14,16-heptaen-4-one 2,2-dioxide] belongs 150 to 500 nM; to `CN(C)CCN1CCOC2CCN(CC2)S(=O)(=O)NC(=O)c2ccc3c(C4CCCCC4)c4n(c3c2)C[C@@H]1COc1ccccc1-4` [Example 307, (20R)-31-cyclohexyl-21-[2-(dimethylamino)ethyl]-18,24-dioxa-2-thia-1,3,10,21-tetraazahexacyclo[23.2.2.1^5,9.1^8,11.1^10,20.0^12,17]dotriaconta-5(32),6,8,11(31),12,14,16-heptaen-4-one 2,2-dioxide], 150 to 500 nM.
